# Measured values from BigSolDB 2.1.
structure (smiles),measurement,setting,value
CCOc1nc2cccc(C(=O)OC(C)OC(=O)OC3CCCCC3)c2n1Cc1ccc(-c2ccccc2-c2nn[nH]n2)cc1 (stereo not given),solubility (mole fraction),"in 2-butanone, 278.15 K",0.00575
same,solubility (mole fraction),"in 2-butanone, 283.15 K",0.00653
same,solubility (mole fraction),"in 2-butanone, 288.15 K",0.00749
same,solubility (mole fraction),"in 2-butanone, 293.15 K",0.0086
same,solubility (mole fraction),"in 2-butanone, 298.15 K",0.01
same,solubility (mole fraction),"in 2-butanone, 303.15 K",0.0118
same,solubility (mole fraction),"in 2-butanone, 308.15 K",0.0138
same,solubility (mole fraction),"in 2-butanone, 313.15 K",0.016
same,solubility (mole fraction),"in 2-butanone, 318.15 K",0.019
same,solubility (mole fraction),"in 2-butanone, 323.15 K",0.0224
same,solubility (mole fraction),"in 2-butanone, 328.15 K",0.0264
same,solubility (mole fraction),"in 2-butanone, 333.15 K",0.031
same,solubility (mole fraction),"in acetone, 278.15 K",0.00383
same,solubility (mole fraction),"in acetone, 283.15 K",0.00467
same,solubility (mole fraction),"in acetone, 288.15 K",0.00566
same,solubility (mole fraction),"in acetone, 293.15 K",0.00673
same,solubility (mole fraction),"in acetone, 298.15 K",0.00783
same,solubility (mole fraction),"in acetone, 303.15 K",0.00946
same,solubility (mole fraction),"in acetone, 308.15 K",0.0111
same,solubility (mole fraction),"in acetone, 313.15 K",0.0133
same,solubility (mole fraction),"in acetone, 318.15 K",0.0155
same,solubility (mole fraction),"in acetone, 323.15 K",0.0182
same,solubility (mole fraction),"in acetonitrile, 278.15 K",0.00026
same,solubility (mole fraction),"in acetonitrile, 283.15 K",0.00033
same,solubility (mole fraction),"in acetonitrile, 288.15 K",0.00044
same,solubility (mole fraction),"in acetonitrile, 293.15 K",0.00058
same,solubility (mole fraction),"in acetonitrile, 298.15 K",0.00071
same,solubility (mole fraction),"in acetonitrile, 303.15 K",0.00091
same,solubility (mole fraction),"in acetonitrile, 308.15 K",0.00127
same,solubility (mole fraction),"in acetonitrile, 313.15 K",0.00159
same,solubility (mole fraction),"in acetonitrile, 318.15 K",0.00195
same,solubility (mole fraction),"in acetonitrile, 323.15 K",0.00263
same,solubility (mole fraction),"in acetonitrile, 328.15 K",0.00343
same,solubility (mole fraction),"in acetonitrile, 333.15 K",0.00442
same,solubility (mole fraction),"in ethanol, 278.15 K",0.00055
same,solubility (mole fraction),"in ethanol, 283.15 K",0.00066
same,solubility (mole fraction),"in ethanol, 288.15 K",0.00086
same,solubility (mole fraction),"in ethanol, 293.15 K",0.00103
same,solubility (mole fraction),"in ethanol, 298.15 K",0.0013
same,solubility (mole fraction),"in ethanol, 303.15 K",0.00163
same,solubility (mole fraction),"in ethanol, 308.15 K",0.00203
same,solubility (mole fraction),"in ethanol, 313.15 K",0.00271
same,solubility (mole fraction),"in ethanol, 318.15 K",0.00355
same,solubility (mole fraction),"in ethanol, 323.15 K",0.00458
same,solubility (mole fraction),"in ethanol, 328.15 K",0.00573
same,solubility (mole fraction),"in ethanol, 333.15 K",0.00772
same,solubility (mole fraction),"in isopropanol, 278.15 K",0.00026
same,solubility (mole fraction),"in isopropanol, 283.15 K",0.00037
same,solubility (mole fraction),"in isopropanol, 288.15 K",0.00052
same,solubility (mole fraction),"in isopropanol, 293.15 K",0.0007
same,solubility (mole fraction),"in isopropanol, 298.15 K",0.00093
same,solubility (mole fraction),"in isopropanol, 303.15 K",0.00128
same,solubility (mole fraction),"in isopropanol, 308.15 K",0.0017
same,solubility (mole fraction),"in isopropanol, 313.15 K",0.00221
same,solubility (mole fraction),"in isopropanol, 318.15 K",0.00298
same,solubility (mole fraction),"in isopropanol, 323.15 K",0.00391
same,solubility (mole fraction),"in isopropanol, 328.15 K",0.00526
same,solubility (mole fraction),"in isopropanol, 333.15 K",0.00667
same,solubility (mole fraction),"in n-propanol, 278.15 K",0.00062
same,solubility (mole fraction),"in n-propanol, 283.15 K",0.00079
same,solubility (mole fraction),"in n-propanol, 288.15 K",0.00098
same,solubility (mole fraction),"in n-propanol, 293.15 K",0.00132
same,solubility (mole fraction),"in n-propanol, 298.15 K",0.00172
same,solubility (mole fraction),"in n-propanol, 303.15 K",0.00208
same,solubility (mole fraction),"in n-propanol, 308.15 K",0.00283
same,solubility (mole fraction),"in n-propanol, 313.15 K",0.00373
same,solubility (mole fraction),"in n-propanol, 318.15 K",0.00452
same,solubility (mole fraction),"in n-propanol, 323.15 K",0.0059
same,solubility (mole fraction),"in n-propanol, 328.15 K",0.00759
same,solubility (mole fraction),"in n-propanol, 333.15 K",0.00977
